The results in this text go back to patent publication US12234231B2, “EIF4E inhibitors and uses thereof” (PIC Therapeutics, Inc., priority 2021, dated 2025).

A word on the IC50: it is the concentration that inhibits the measured activity by half. A lower IC50 goes with higher potency.

SMILES strings stand for the structures.

T1 sequence (P06730 28-217): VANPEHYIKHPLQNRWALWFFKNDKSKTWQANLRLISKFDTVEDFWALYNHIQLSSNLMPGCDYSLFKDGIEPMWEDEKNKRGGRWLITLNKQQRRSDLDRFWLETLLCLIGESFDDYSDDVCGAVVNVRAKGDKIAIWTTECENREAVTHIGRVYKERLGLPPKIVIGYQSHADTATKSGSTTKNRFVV

The experiment addresses T1, Human eIF4E (aa 28-217) (Homo sapiens, UniProt P06730).
T1 construct: Human eIF4E (aa 28-217) with a C-terminal His-tag; made in house
The experiment in a line: Human eIF4E/4G2 binding assay (TR-FRET). To be noted: purified eIF4E with biotin labeled 4G2 peptide, 4 hours preincubation at room temperature. The method, then:
Example 3. Compound Testing in Human eIF4E/4G2 Binding Assay
1004461 Human eIF4E (aa 28-217) with a C-terminal His-tag was expressed in E. coli in inclusion bodies. The protein was solubilized with 8 M urea and purified under denaturing conditions using nickel-charged HisTrap HP columns (GE Healthcare). The purified protein was then refolded by diluting in 20 mM Hepes pH 7.0, 0.5 M NaCl, 1 mM DTT, 1 mM EDTA, 0.5 M arginine plus 6 M urea, and then dialyzing overnight into the same buffer without the urea. The protein was further dialyzed into 20 mM Hepes, pH 6.5, 50 mM NaCl, 1 mM EDTA, 1 mM DTT, and concentrated using Hitrap SP sepharose FF columns (GE Healthcare). The concentrated protein was dialyzed into 20 mM Hepes, pH 7.0, 0.5M NaCl, 5 mM DTT and 10% glycerol, and stored at −80° C. until use.
Test compounds (3.43 mM stock in DMSO) were diluted 2-fold in series in DMSO (10 concentration points). Compound solutions (1.2 μl/well) were added into black 384-well polypropylene microplates (Matrix, Thermal Scientific). Twenty-two microliters per well of Assay Buffer (50 mM NaPi, pH 6.5, 50 mM KCl, 1 mM DTT and 0.5 mg/ml gamma globulin) and eight microliters per well of 82.5 nM purified eIF4E in Assay Buffer were added. The samples were incubated at room temperature (20-23° C.) for 4 hours. Biotin labeled 4G2 peptide (Ac-Lys-Gln-Tyr-Asp-Arg-Glu-Phe-Leu-Leu-Asp-Phe-Gln-Phe-Met-Pro-Lys(Aha-Bio)-NH2, 1.75 μM stock in DMSO) was diluted to 0.14 μM in Assay Buffer (without DTT) and 5 μl/well was added. The samples were incubated at room temperature for 20 min. Five microliters per well of 6.4 nM Eu-streptavidin (Eu-SA, Perkin Elmer) and 80 nM Allophycocyanin (APC)-anti His antibody (Columbia Biosciences) in Assay Buffer (without DTT) were then added and the samples were incubated at room temperature for 20 min.
Assay signals were monitored by reading excitation at 340 nm and emission fluorescence at 615 nm and 665 nm on an Envision reader (Perkin Elmer). Normalized TR-FRET (time-resolved fluorescence resonance energy transfer) assay signal (Rn) was calculated by the formula: Rn=[(A−Ba−C×D)/(D−Bd)]×(Dc−Bd) • Where A is the fluorescence intensity of the sample at 665 nm, • D is the fluorescence intensity of the sample at 615 nm, • Ba and Bd are plate backgrounds at 665 nm and 615 nm, respectively, • Dc is the fluorescence intensity of 0.78 nM Eu-SA in the assay buffer at 615 nm
The cross-talk factor (C) is determined by the following formula: C=(Ac−Ba)/(Dc−Bd) Where Ac is the fluorescence intensity of 0.78 nM Eu-SA in the assay buffer at 665 nm.
IC50 values were calculated using xLFit program (IDBS). Table 2 below lists EC50 of some compounds, wherein A represents IC50≤0.5 μM; B represents 0.5 uM<IC50≤1 μM; and C represents IC50>1 μM.
A general note: TR-FRET usually uses a lanthanide donor and a delayed reading to cut background.
`COCCOc1ccc(-c2nc(Nc3ncc(-c4cccs4)cc3C(=O)O)sc2CC(C)C)cc1F` [I-30] registered an IC50 of 500 to 1000 nM.

In turn, `CNCCNC(=O)c1cc(-c2cccs2)cnc1Nc1nc(-c2ccc(OCCOC)c(F)c2)c(CC(C)C)s1` [I-56, 2-((4-(3-fluoro-4-(2-methoxyethoxy)phenyl)-5-isobutylthiazol-2-yl)amino)-N-(2-(methylamino)ethyl)-5-(thiophen-2-yl)nicotinamide] registered an IC50 above 1000 nM.

On to `COCCOc1ccc(-c2nc(Nc3cnc(-c4cccs4)cc3C(=O)O)sc2Cc2ccccc2)cc1F` [I-63], for which the 50% inhibitory concentration (IC50) is at most 500 nM.

`COCCOc1cc(-c2nc(Nc3ncc(-c4cccs4)cc3C(=O)O)sc2CC(C)(C)C)ccc1Cl` [I-95] gave an IC50 of at most 500 nM.
